Literature values in paper PMC7845544 (Frontiers in Pharmacology, 2021).

Assays:
[1] = parameters: method as in Ghobadi et al., 2009; settings: ref Ghobadi et al., 2009; cited from earlier work
human FSHR = test system: human FSHR; parameters: method as in Gerrits et al., 2016; settings: ref Gerrits et al., 2016; read-out: human FSHR-AA EC50; cited from earlier work
TSH receptor = target: TSH receptor; parameters: method as in Gerrits et al., 2016; settings: ref Gerrits et al., 2016, cited from earlier work
monkeys = test system: monkeys; parameters: method as in Gerrits et al., 2016; settings: ref Gerrits et al., 2016, cited from earlier work
women = test system: women; parameters: method as in Gerrits et al., 2016; settings: up to 40 mg/day; ref Gerrits et al., 2016; cited from earlier work

Row | Compound | elimination from blood [1] | EC50 (human FSHR) | EC50 (TSH receptor; read-out: TSH receptor EC50) | TSHR/FSHR (TSH receptor) | dose for thyroid follicular cell hypertrophy (monkeys) | fold separation between ovarian and thyroid stimulation (monkeys) | dose required for folliculogenesis (monkeys; twice daily) | follicular growth in human phase one study (women)
1 | CCN(CC)CCOc1ccc(C(=C(Cl)c2ccccc2)c2ccccc2)cc1 [clomiphene] | ≥ 72 h | – | – | – | – | – | – | –
2 | COc1cc2c(cc1CC(C)C)-c1c(-c3cccs3)cc(C(=O)N(C)C(C)(C)C)n1CC2 [MK-8389] | – | 4.2 nM | 340 nM | 81 | 23 mg/kg | 10 fold | 2.25 mg/kg | failed to induce follicular growth
